# Columns and labels:
# Type in all cases: cell-based
# [1] = biological target: T1, ER (Homo sapiens, UniProt P03372); assay: ER antagonism (T47D ERE luciferase), T47d-kb-Luc cells; settings: read-out: IC50 (ER antagonistm)
# T1 construct: endogenous in cells; host or cells: T47d-kb-Luc (T47D stably transfected with a luciferase reporter gene only)
# T1 sequence (P03372 1-595): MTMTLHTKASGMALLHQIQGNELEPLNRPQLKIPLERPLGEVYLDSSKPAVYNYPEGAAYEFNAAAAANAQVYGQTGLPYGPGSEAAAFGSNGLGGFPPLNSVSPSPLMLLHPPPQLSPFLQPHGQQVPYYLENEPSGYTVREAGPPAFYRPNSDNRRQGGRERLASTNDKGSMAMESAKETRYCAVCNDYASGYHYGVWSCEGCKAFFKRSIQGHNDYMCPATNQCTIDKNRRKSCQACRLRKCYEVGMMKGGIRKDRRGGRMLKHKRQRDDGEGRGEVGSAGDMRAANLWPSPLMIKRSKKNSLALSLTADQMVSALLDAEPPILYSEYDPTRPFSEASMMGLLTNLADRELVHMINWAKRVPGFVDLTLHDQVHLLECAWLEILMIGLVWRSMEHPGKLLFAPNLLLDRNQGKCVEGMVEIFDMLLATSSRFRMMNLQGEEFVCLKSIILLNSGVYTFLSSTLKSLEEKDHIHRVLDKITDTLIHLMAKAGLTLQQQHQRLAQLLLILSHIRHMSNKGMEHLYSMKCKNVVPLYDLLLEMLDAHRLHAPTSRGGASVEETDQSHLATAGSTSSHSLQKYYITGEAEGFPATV
# Description: The Antiestrogenic Activity of the Exemplary Compounds was Assessed in T47d-kb-Luc Stably Transfected Human Breast Cancer Cell
# Antagonist activities were measured by the compound's ability to inhibit the activity of estradiol, the natural estrogen. Data were then normalized relative to the activity of the estradiol control and determinations were performed for five concentrations of the samples in quadruplicate in at least three separate experiments.
# [2] = test system: MCF-7 breast cancer cells; assay: MCF-7 proliferation / cell viability assay; settings: Homo sapiens, MCF7; MCF-7 proliferation with 0.1 nM 17-beta estradiol; read-out: IC50 (anti-proliferation)
# Description: The Anti-Proliferative Activities of the Exemplary Compounds were Assessed by a Cell Viability Assay in MCF-7 Breast Cancer Cells
# MCF-7 cells were plated in six-well plates at a density of 50,000 each well in 5% FBS DMEM medium. The cells were then treated with exemplary compounds or fulvestrant separately at 6 different doses ranging from 10^−10 M to 10^−5 M for 5 days, while equal volumes of DMSO were used as vehicle controls. Viable cell numbers were counted with a Z Series Coulter Counter instrument (Beckman-Coulter) following manufacturer's instructions. The ratio of drug treated viable cell numbers to vehicle treated viable cell numbers was defined as survival ratio where the control has the survival ratio of 100%.
# [3] = biological target: T2, ERα (Homo sapiens, UniProt P03372); assay: ER degradation in MCF-7 cells (Western blot); settings: for DC50: ER degradation, 24 hours; for Dmax: MCF7, Maximal ER degradation, read-out: Dmax
# T2 construct: endogenous in cells; host or cells: MCF-7
# T2 sequence (P03372 1-595): T1 sequence (P03372 1-595)
# Description: Degradation of ER in MCF-7 Breast Cancer Cells by Exemplary Compounds of the Present Disclosure
# MCF-7 cells were plated in 24-well plates at a density of 10^5 cells/well. Media containing various drug concentrations were added on the day following plating (day 0) and allowed to incubate for 24 hours for Western blot. Media with the tested compound was changed every other day. Cells were lysed, snapped frozen in liquid nitrogen, and stored at −80° C. until assay for ERα. Media were removed and dishes were washed with 1× DPBS. Lysates were made by adding 150 μL of complete lysis solution and scraping cells into a 1.5 mL microcentrifuge tube. Lysates were placed on a rotisserie at 4° C. for 30 min and then spun at 4° C. at 12000 rcf for 10 min. Supernatants were assayed for protein content, snap-frozen, and stored a −80° C. if not run immediately. Then 50 μg of protein was subjected to Western blot protocol. Membranes were blocked and then incubated with 1:200 dilution of ERα antibody at 4° C. overnight followed by 1:10000 dilution of secondary antibody for 1 h at room temperature. They were then imaged on a LICOR infrared scanner.
# FIGS. 1 to 10 show the ER degradation efficacy of compounds 3, 5, 9, 11, 12, 16, 18, 19, 20, 21, 23, 24, 25, 26, 27, 28, 29, 30, 31, 32, 33, 34, 37, 38, and 40 in MCF-7 cells at various concentrations. Degradation of ER was expressed as an DC50 value and was determined for exemplary compounds in Table 1 by calculation of the concentration of compound that was required to give a 50% reduction of ER expression level. Maximal degradation of ER was expressed as a Dmax value by measuring the highest percentage of ER reduction achieved by exemplary compound in the treatment concentration range.
IC50 [1],IC50 [2],DC50 [3],Dmax [3],SMILES
< 10 nM,< 10 nM,< 10 nM,> 90%,"CC/C(=C(/c1ccc(B(O)O)cc1)c1ccc(N2CCC(CNC3CCN(c4ccc5c(c4)C(=O)N(C4CCC(=O)NC4=O)C5)CC3)CC2)cc1)c1ccccc1 (stereo not shown) [Compound 14, (E)-(4-(1-(4-(4-(((1-(2-(2,6-dioxopiperidin-3-yl)-3-oxoisoindolin-5-yl)piperidin-4-yl)amino)methyl)piperidin-1-yl)phenyl)-2-phenylbut-1-en-1-yl)phenyl)boronic acid]"
10 to 50 nM,10 to 50 nM,10 to 50 nM,> 75%,"CC/C(=C(/c1ccc(OCCN2CCN(CCCNc3ccc4c(c3)C(=O)N(C3CCC(=O)NC3=O)C4=O)CC2)cc1)c1ccc(B(O)O)cc1)c1ccccc1 (stereo not shown) [Compound 15, (Z)-(4-(1-(4-(2-(4-(3-((2-(2,6-dioxopiperidin-3-yl)-1,3-dioxoisoindolin-5-yl)amino)propyl)piperazin-1-yl)ethoxy)phenyl)-2-phenylbut-1-en-1-yl)phenyl)boronic acid]"
10 to 50 nM,10 to 50 nM,10 to 50 nM,> 75%,"CC/C(=C(\c1ccc(OCCN2CCN(CCCNc3ccc4c(c3)C(=O)N(C3CCC(=O)NC3=O)C4=O)CC2)cc1)c1ccc(B(O)O)cc1)c1ccccc1 (stereo not shown) [Compound 16, (E)-(4-(1-(4-(2-(4-(3-((2-(2,6-dioxopiperidin-3-yl)-1,3-dioxoisoindolin-5-yl)amino)propyl)piperazin-1-yl)ethoxy)phenyl)-2-phenylbut-1-en-1-yl)phenyl)boronic acid]"
10 to 50 nM,10 to 50 nM,< 10 nM,> 90%,"CC/C(=C(/c1ccc(OCCN2CCN(CC3CCN(c4ccc5c(c4)C(=O)N(C4CCC(=O)NC4=O)C5=O)CC3)CC2)cc1)c1ccc(B(O)O)cc1)c1ccccc1 (stereo not shown) [Compound 17, (Z)-(4-(1-(4-(2-(4-((1-(2-(2,6-dioxopiperidin-3-yl)-1,3-dioxoisoindolin-5-yl)piperidin-4-yl)methyl)piperazin-1-yl)ethoxy)phenyl)-2-phenylbut-1-en-1-yl)phenyl)boronic acid]"
> 50 nM,> 50 nM,10 to 50 nM,> 75%,"CC/C(=C(/c1ccc(OCCN2CCC(CN3CCN(c4ccc5c(c4)C(=O)N(C4CCC(=O)NC4=O)C5=O)CC3)CC2)cc1)c1ccc(B(O)O)cc1)c1ccccc1 (stereo not shown) [Compound 19, (Z)-(4-(1-(4-(2-(4-((4-(2-(2,6-dioxopiperidin-3-yl)-1,3-dioxoisoindolin-5-yl)piperazin-1-yl)methyl)piperidin-1-yl)ethoxy)phenyl)-2-phenylbut-1-en-1-yl)phenyl)boronic acid]"
> 50 nM,> 50 nM,10 to 50 nM,> 75%,"CC/C(=C(\c1ccc(OCCN2CCC(CN3CCN(c4ccc5c(c4)C(=O)N(C4CCC(=O)NC4=O)C5=O)CC3)CC2)cc1)c1ccc(B(O)O)cc1)c1ccccc1 (stereo not shown) [Compound 20, (E)-(4-(1-(4-(2-(4-((4-(2-(2,6-dioxopiperidin-3-yl)-1,3-dioxoisoindolin-5-yl)piperazin-1-yl)methyl)piperidin-1-yl)ethoxy)phenyl)-2-phenylbut-1-en-1-yl)phenyl)boronic acid]"
< 10 nM,< 10 nM,< 10 nM,> 90%,"CC/C(=C(/c1ccc(OCCN2CCN(CC3CCN(c4ccc5c(c4)CN(C4CCC(=O)NC4=O)C5=O)CC3)CC2)cc1)c1ccc(B(O)O)cc1)c1ccccc1 (stereo not shown) [Compound 21, (Z)-(4-(1-(4-(2-(4-((1-(2-(2,6-dioxopiperidin-3-yl)-1-oxoisoindolin-5-yl)piperidin-4-yl)methyl)piperazin-1-yl)ethoxy)phenyl)-2-phenylbut-1-en-1-yl)phenyl)boronic acid]"
< 10 nM,< 10 nM,< 10 nM,> 90%,"CC/C(=C(\c1ccc(OCCN2CCN(CC3CCN(c4ccc5c(c4)CN(C4CCC(=O)NC4=O)C5=O)CC3)CC2)cc1)c1ccc(B(O)O)cc1)c1ccccc1 (stereo not shown) [Compound 22, (E)-(4-(1-(4-(2-(4-((1-(2-(2,6-dioxopiperidin-3-yl)-1-oxoisoindolin-5-yl)piperidin-4-yl)methyl)piperazin-1-yl)ethoxy)phenyl)-2-phenylbut-1-en-1-yl)phenyl)boronic acid]"
10 to 50 nM,10 to 50 nM,< 10 nM,> 90%,"CC/C(=C(/c1ccc(OCCN2CCN(CCN3CCN(c4ccc5c(c4)C(=O)N(C4CCC(=O)NC4=O)C5=O)CC3)CC2)cc1)c1ccc(B(O)O)cc1)c1ccccc1 (stereo not shown) [Compound 23, (Z)-(4-(1-(4-(2-(4-(2-(4-(2-(2,6-dioxopiperidin-3-yl)-1,3-dioxoisoindolin-5-yl)piperazin-1-yl)ethyl)piperazin-1-yl)ethoxy)phenyl)-2-phenylbut-1-en-1-yl)phenyl)boronic acid]"
10 to 50 nM,10 to 50 nM,< 10 nM,> 90%,CC/C(=C(\c1ccc(OCCN2CCN(CCN3CCN(c4ccc5c(c4)C(=O)N(C4CCC(=O)NC4=O)C5=O)CC3)CC2)cc1)c1ccc(B(O)O)cc1)c1ccccc1 (stereo not shown) [Compound 24]
10 to 50 nM,10 to 50 nM,< 10 nM,> 90%,"CC/C(=C(\c1ccc(OCCN2CCN(CCC3CCN(c4ccc5c(c4)C(=O)N(C4CCC(=O)NC4=O)C5=O)CC3)CC2)cc1)c1ccc(B(O)O)cc1)c1ccccc1 (stereo not shown) [Compound 26, (E)-(4-(1-(4-(2-(4-(2-(1-(2-(2,6-dioxopiperidin-3-yl)-1,3-dioxoisoindolin-5-yl)piperidin-4-yl)ethyl)piperazin-1-yl)ethoxy)phenyl)-2-phenylbut-1-en-1-yl)phenyl)boronic acid]"
> 50 nM,10 to 50 nM,< 10 nM,> 90%,"CC/C(=C(/c1ccc(OCCN2CCC(CCN3CCN(c4ccc5c(c4)C(=O)N(C4CCC(=O)NC4=O)C5=O)CC3)CC2)cc1)c1ccc(B(O)O)cc1)c1ccccc1 (stereo not shown) [Compound 27, (Z)-(4-(1-(4-(2-(4-(2-(4-(2-(2,6-dioxopiperidin-3-yl)-1,3-dioxoisoindolin-5-yl)piperazin-1-yl)ethyl)piperidin-1-yl)ethoxy)phenyl)-2-phenylbut-1-en-1-yl)phenyl)boronic acid]"
> 50 nM,10 to 50 nM,< 10 nM,> 90%,"CC/C(=C(\c1ccc(OCCN2CCC(CCN3CCN(c4ccc5c(c4)C(=O)N(C4CCC(=O)NC4=O)C5=O)CC3)CC2)cc1)c1ccc(B(O)O)cc1)c1ccccc1 (stereo not shown) [Compound 28, (E)-(4-(1-(4-(2-(4-(2-(4-(2-(2,6-dioxopiperidin-3-yl)-1,3-dioxoisoindolin-5-yl)piperazin-1-yl)ethyl)piperidin-1-yl)ethoxy)phenyl)-2-phenylbut-1-en-1-yl)phenyl)boronic acid]"

# Source: patent US20220348595A1, “COMPOUNDS AND METHODS FOR THE TARGETED DEGRADATION OF ESTROGEN RECEPTORS” (Endotarget Inc., priority 2021, published 2022)
